Results from paper PMC10463376, “Design, synthesis, in vitro anticancer, molecular docking and SAR studies of new series of pyrrolo[2,3-d]pyrimidine derivatives” (BMC Chemistry, 2023).
≈ marks a conversion by molar mass, not a printed value. Entries after “also recorded” stand apart in the source; their conditions may differ. Read-outs that look alike come from different tables or passages of the source.

Key:
HePG2 liver cancer cells = test: MTT assay, HePG2; settings: Homo sapiens, HepG2, 72 h; for IC50: read-out: IC50 HePG2; for cytotoxicity at 100 µg/mL: read-out: MTT cell proliferation mortality assay (%) HePG2
From the text: (§1) All of the following steps were done in a sterile Laminar flow class II biosafety cabinet (Baker, SG406INT, Sanford, ME, USA). DMEM was used as a suspension medium for breast cancer (MCF7), colorectal cancer (HCT116), prostate cancer (PC3), liver cancer (HePG2), pancreatic cancer (PACA2) and lung cancer (A549), while normal cell line (BJ1) was suspended in DMEM-F12 medium. The selected cell lines were purchased from American Type Culture Collection (ATCC). The media were supplemented with a 1% antimycotic-antibiotic mixture (10,000 µg/ml streptomycin sulfate, 25 µg/ml Amphotericin B, and 10,000 U/ml Potassium Penicillin) and 1% L-glutamine. 10 × 10^4cells/well were seeded in 96 well microtiter plates and incubated for 24 h at 37 ℃ under 5% carbon dioxide using a water-jacketed Carbon dioxide incubator (Sheldon, SCO5A, OR, USA). […] After the incubation time of 72 h, the medium was removed. Afterward, 40 µl MTT salt ([…]) was added to each well and kept for 4 h under the same conditions of 37 °C and 5% carbon dioxide. Finally, 200 μl of 10% Sodium dodecyl sulfate (SDS) in deionized water was added to each well and incubated overnight at 37 °C. The step of SDS addition was done to stop the reaction and dissolve the formed formazan crystals. The absorbance was then measured at a wavelength of 595 nm and the reference wavelength was set at 620 nm using a microplate multi-well reader (Bio-Rad Laboratories Inc., model 3356, California, USA). […] A statistical significance analysis was determined between the samples and the negative control using an independent t-test by SPSS 11 program. Dimethyl sulfoxide (DMSO) was the vehicle that dissolved our synthesized compounds and its concentration in the cells was less than 0.2%. IC50 values were calculated using the GraphPad Prism 6 program. The degree of selectivity of the synthetic compounds was expressed as SI = IC50 of a pure compound in a normal cell line/IC50 of the same pure compound in the cancer cell line, where IC50 is the concentration of the compound required to kill 50% of the cells.

MCF7 breast cancer cells = test: MTT assay, MCF7; settings: for cytotoxicity at 100 µg/mL / IC50: Homo sapiens, MCF7, 72 h; for cytotoxicity at 100 µg/mL / cytotoxicity: read-out: MTT cell proliferation mortality assay (%) MCF7; for IC50: read-out: IC50 MCF7; for cytotoxicity: at 100 μg/ml, 72 h
From the text: as §1

[1] = test system: HCT116 colorectal cancer cells; test: MTT assay, HCT116; settings: for IC50 / cytotoxicity at 100 µg/mL: Homo sapiens, HCT-116, 72 h; for IC50: read-out: IC50 HCT116
From the text: as §1

A549 lung cancer cells = test: MTT assay, A549; settings: for IC50 / cytotoxicity at 100 µg/mL: Homo sapiens, A549, 72 h; for IC50: read-out: IC50 A549
From the text: as §1

[2] = MTT assay, normal cell line BJ1; assay type: cell-based; settings: human, at 100 μg/ml, read-out: MTT cell proliferation mortality assay (%) BJ1
From the text: as §1

[3] = test system: PC3 prostate cancer cells; test: MTT assay, PC3; settings: 72 h; for IC50 / cytotoxicity at 100 µg/mL: Homo sapiens; for IC50: read-out: IC50 PC3
From the text: as §1

[4] = test system: PACA2 pancreatic cancer cells; test: MTT assay, PACA2; settings: Homo sapiens, PaCa-2, 72 h; for IC50: read-out: IC50 PACA2; for cytotoxicity at 100 µg/mL: read-out: MTT cell proliferation mortality assay (%) PACA2
From the text: as §1

Bcl-2 = test: RT-qPCR Bcl-2 mRNA in MCF7; assay type: cell-based, human; settings: MCF7, vs negative control
Description: (§2) All of the extractions were conducted on ice with ice-cold reagents. Total RNA from the different cell lines was isolated using Trizol (Invitrogen; Life Technologies, USA) according to the method of Sthoeger et al.. The 260:280 ratios were measured to determine RNA quality after the isolation method was completed according to the manufacturer’s instructions. A high-capacity cDNA reverse transcription kit was used to produce complementary DNA (cDNA) (Applied Biosystems, USA). […] The relative gene expression method (i.e., ΔΔCT) was used to analyze the real-time PCR data, as explained in Applied Biosystem User Bulletin No. 2. Each sample and gene were normalized using the β-actin gene.

IL-8 = test: RT-qPCR IL-8 mRNA in MCF7; assay type: cell-based, human; settings: MCF7, vs negative control
Description: as §2

BAX = test: ELISA BAX in MCF7 cells; assay type: cell-based, human; settings: MCF7 cells treated with IC50; untreated control 4.92
From the text: (§3) Elisa assay was used to determine the concentrations of Human caspases-3, -8, Bax, and Bcl2 in PACA2- and A549-treated cells. Also, the concentrations of caspase-8, Bax, and Bcl2 in MCF7-treated cells were detected. The procedures were followed up according to the instructions described in the following kits; Invitrogen human Caspase-3 Elisa Kit, Catalog KHO1091, DRG® human Caspase-8 ELISA Kit, Catalog (EIA-4863), Human Bax ELISA Kit (ab199080) and Human Bcl-2 ELISA Kit (ab119506) respectively. Shortly, the protocol described in the above kits was as followed; at the beginning, all the reagents, samples and standards were prepared. 100 μl of samples or standard were micro pipetted to each well of micro-well strip and kept at room temperature for 2 h. After washing the micro-well strips three times with washing buffer, the prepared antibody (anti-rabbit-IgG-HRP) at a concentration of 100 μl was added to each well at room temperature for 1 h. Then, the micro-well strips were washed again three times. Afterward, the prepared tetramethyl-benzidine (TMB) solution (100 μl) was added to the micro-well strips and kept for 10 min. At last, about 50 μl of stop solution was pipetted to each well to inactivate the enzyme completely. The absorbance of all samples was measured at a wavelength of 460 nm and compared to that of the standard. Curve fitting software was used to plot a standard curve and the concentrations for the unknown samples were measured from the standard curve.

caspase 8 = test: ELISA caspase 8 in MCF7 cells; assay type: cell-based, human; settings: MCF7 cells treated with IC50; untreated control 3.99
From the text: as §3

P53 = test: RT-qPCR P53 mRNA in MCF7; assay type: cell-based, human; settings: MCF7, vs negative control
Description: as §2

[5] = read-out: MTT cell proliferation mortality assay (%) HCT116, at 100 μg/ml, 72 h
[6] = read-out: MTT cell proliferation mortality assay (%) A549, at 100 μg/ml, 72 h
[7] = read-out: MTT cell proliferation mortality assay (%) PC3, at 100 μg/ml, 72 h

## CN1CCN(c2nc(C(Cl)(Cl)Cl)nc3c2c(-c2ccc(Br)cc2)c(Cl)n3-c2ccc(Cl)cc2Cl)CC1 [Compound 17, 5-(4-bromophenyl)-6-chloro-7-(2,4-dichlorophenyl)-4-(4-methylpiperazin-1-yl)-2-(trichloromethyl)-7H-pyrrolo[2,3-d]pyrimidine]
HePG2 liver cancer cells
  IC50: 8.7 ± 0.8 µg/mL (≈ 13 µM)
  cytotoxicity at 100 µg/mL: 100%
MCF7 breast cancer cells
  cytotoxicity at 100 µg/mL: 74.3 ± 1.7%
[1]
  IC50: 37.8 ± 0.4 µg/mL (≈ 56.5 µM)
[1]; [5]
  cytotoxicity at 100 µg/mL: 100%
A549 lung cancer cells
  IC50: 34.1 ± 1.5 µg/mL (≈ 51 µM)
A549 lung cancer cells; [6]
  cytotoxicity at 100 µg/mL: 80 to 90%
  cytotoxicity: 89.2 ± 0.4%
[2]
  cytotoxicity at 72 h, 100 μg/ml: 12.5 ± 1.7%
[3]
  IC50: 66.8 ± 2 µg/mL (≈ 99.8 µM)
[3]; [7]
  cytotoxicity at 100 µg/mL: 80 to 90%
[3]; read-out: MTT cell proliferation mortality assay (%) PC3, at 100 μg/ml
  cytotoxicity: 79.5 ± 0.5%
[4]
  IC50: 6.4 ± 0.7 µg/mL (≈ 9.57 µM)
  cytotoxicity at 100 µg/mL: 100%

## COc1ccc(-c2c(Cl)n(-c3ccc(Cl)cc3Cl)c3ncnc(NN)c23)cc1OC [Compound 14b, 6-chloro-7-(2,4-dichlorophenyl)-5-(3,4-dimethoxyphenyl)-4-hydrazineyl-7H-pyrrolo[2,3-d]pyrimidine]
HePG2 liver cancer cells
  IC50: 17.5 ± 0.8 µg/mL (≈ 37.7 µM)
  cytotoxicity at 100 µg/mL: 100%
Bcl-2
  Bcl-2 mRNA level: down-regulated
IL-8
  IL-8 mRNA level: lowered; also recorded: down-regulated
BAX
  BAX level (ELISA): 14.25 pg/mL
MCF7 breast cancer cells
  IC50: 16.8 ± 0.9 µg/mL (≈ 36.1 µM)
  cytotoxicity at 100 µg/mL: 94.9 ± 1.1%
  cytotoxicity: 80 to 95%
Caspase 8
  caspase 8 level (ELISA): 18.263 pg/mL
[1]; [5]
  cytotoxicity at 100 µg/mL: 100%
A549 lung cancer cells; [6]
  cytotoxicity at 100 µg/mL: 100%
[3]
  IC50: 18.7 ± 0.2 µg/mL (≈ 40.2 µM)
[3]; [7]
  cytotoxicity at 100 µg/mL: 100%
P53
  P53 mRNA level: significantly increased; also recorded: up-regulated
[4]
  cytotoxicity at 100 µg/mL: 100%

## COc1ccc(-c2c(Cl)n(-c3ccc(Cl)cc3Cl)c3ncnc(N4CCN(C)CC4)c23)cc1OC [Compound 16b, 6-chloro-7-(2,4-dichlorophenyl)-5-(3,4-dimethoxyphenyl)-4-(4-methylpiperazin-1-yl)-7H-pyrrolo[2,3-d]pyrimidine]
Bcl-2
  Bcl-2 mRNA level: down-regulated
IL-8
  IL-8 mRNA level: lowered
BAX
  BAX level (ELISA): 13.25 pg/mL
MCF7 breast cancer cells
  IC50: 5.7 ± 0.9 µg/mL (≈ 10.7 µM)
  cytotoxicity at 100 µg/mL: 100%
Caspase 8
  caspase 8 level (ELISA): 14.72 pg/mL
A549 lung cancer cells; [6]
  cytotoxicity at 100 µg/mL: 100%
P53
  P53 mRNA level: up-regulated; also recorded: significantly increased
[4]
  cytotoxicity at 100 µg/mL: 100%

## NNc1ncnc2c1c(-c1ccc(Br)cc1)c(Cl)n2-c1ccc(Cl)cc1Cl [Compound 14a, 5-(4-bromophenyl)-6-chloro-7-(2,4-dichlorophenyl)-4-hydrazineyl-7H-pyrrolo[2,3-d]pyrimidine]
HePG2 liver cancer cells
  IC50: 37.9 ± 0.9 µg/mL (≈ 78.4 µM)
  cytotoxicity at 100 µg/mL: 100%
Bcl-2
  Bcl-2 mRNA level: down-regulated
IL-8
  IL-8 mRNA level: lowered; also recorded: down-regulated
BAX
  BAX level (ELISA): 9.99 pg/mL
MCF7 breast cancer cells
  IC50: 1.7 ± 0.4 µg/mL (≈ 3.52 µM)
  cytotoxicity at 100 µg/mL: 100%
Caspase 8
  caspase 8 level (ELISA): 8.76 pg/mL
[1]; [5]
  cytotoxicity at 100 µg/mL: 100%
A549 lung cancer cells; [6]
  cytotoxicity at 100 µg/mL: 100%
[2]
  cytotoxicity at 72 h, 100 μg/ml: 30.8 ± 0.2%
P53
  P53 mRNA level: significantly increased; also recorded: up-regulated
[4]
  cytotoxicity at 100 µg/mL: 100%

## COc1ccc(-c2c(Cl)n(-c3ccc(Cl)cc3Cl)c3ncnc(Cl)c23)cc1OC [Compound 4b, 4,6-dichloro-7-(2,4-dichlorophenyl)-5-(3,4-dimethoxyphenyl)-7H-pyrrolo[2,3-d]pyrimidine]
HePG2 liver cancer cells
  IC50: 84.3 ± 0.7 µg/mL (≈ 180 µM)
  cytotoxicity at 100 µg/mL: 84.3 ± 0.9%
MCF7 breast cancer cells
  IC50: 45.8 ± 1 µg/mL (≈ 97.6 µM)
  cytotoxicity at 100 µg/mL: 90.3 ± 4.9%
  cytotoxicity: 80 to 95%
[1]
  IC50: 58.4 ± 0.7 µg/mL (≈ 124 µM)
[1]; [5]
  cytotoxicity at 100 µg/mL: 80 to 90%
  cytotoxicity: 90.2 ± 1%
A549 lung cancer cells
  IC50: 17.5 ± 0.4 µg/mL (≈ 37.3 µM)
A549 lung cancer cells; [6]
  cytotoxicity at 100 µg/mL: 100%
[2]
  cytotoxicity at 72 h, 100 μg/ml: 22.5 ± 0.3%
[3]
  IC50: 28.5 ± 0.8 µg/mL (≈ 60.7 µM)
[3]; [7]
  cytotoxicity at 100 µg/mL: 100%
[4]
  cytotoxicity at 100 µg/mL: 100%

## COc1cccc2c1C(=O)c1c(O)c3c(c(O)c1C2=O)C[C@@](O)(C(=O)CO)C[C@@H]3O[C@H]1C[C@H](N)[C@H](O)[C@H](C)O1 [Dox, Doxorubicin, reference compound]
HePG2 liver cancer cells
  IC50: 21.6 ± 0.8 µg/mL (≈ 39.7 µM)
  cytotoxicity at 100 µg/mL: 100%
Bcl-2
  Bcl-2 mRNA level: down-regulated
IL-8
  IL-8 mRNA level: lowered
MCF7 breast cancer cells
  IC50: 26.1 ± 0.1 µg/mL (≈ 48 µM)
  cytotoxicity at 100 µg/mL: 100%
[1]
  IC50: 37.6 ± 0.8 µg/mL (≈ 69.2 µM)
[1]; read-out: MTT cell proliferation mortality assay (%) HCT116
  cytotoxicity at 100 µg/mL: 100%
A549 lung cancer cells
  IC50: 28.3 ± 1.3 µg/mL (≈ 52.1 µM)
A549 lung cancer cells; read-out: MTT cell proliferation mortality assay (%) A549
  cytotoxicity at 100 µg/mL: 100%
[3]
  IC50: 23.8 ± 0.2 µg/mL (≈ 43.8 µM)
[3]; read-out: MTT cell proliferation mortality assay (%) PC3
  cytotoxicity at 100 µg/mL: 100%
P53
  P53 mRNA level: up-regulated
[4]
  IC50: 28.3 ± 0.4 µg/mL (≈ 52.1 µM)
  cytotoxicity at 100 µg/mL: 100%
